Data as given in ChEMBL document CHEMBL3044921, “Synthesis, characterization, and SAR studies of new (1H-indol-3-yl)alkyl-3-(1H-indol-3-yl)propanamide derivatives as possible antimicrobial and antitubercular agents” (2013).
Converted amounts (≈) assume the structure as drawn.

What was measured:
Staphylococcus aureus [1] = test: Antibacterial activity against Staphylococcus aureus ATCC 25923 assessed as growth inhibition after 16 to 18 hr by serial plate dilution method; type: functional
Streptococcus pyogenes [2] = test: Antibacterial activity against Streptococcus pyogenes assessed as growth inhibition after 16 to 18 hr by serial plate dilution method; type: functional
[3] = tested on: Mycobacterium tuberculosis; test: Antitubercular activity against Mycobacterium tuberculosis H37Rv ATCC 27294 assessed as growth inhibition at 0.3125 to 5 ug/mL after 7 days by resazurin reduction test; type: functional; conditions: H37Rv ATCC 27294, 168 h
Candida albicans [4] = test: Antifungal activity against Candida albicans assessed as growth inhibition after 3 to 4 days by serial plate dilution method; type: functional
Escherichia coli [5] = type: functional, ATCC 24922
Description: Antibacterial activity against Escherichia coli ATCC 24922 assessed as growth inhibition at 1.56 to 25 ug/ml after 3 to 4 days by agar well diffusion method

Talaromyces marneffei [6] = test: Antifungal activity against Talaromyces marneffei assessed as growth inhibition at […] to […] ug/ml after 3 to 4 days by agar well diffusion method; type: functional
Klebsiella pneumoniae [7] = test: Antibacterial activity against Klebsiella pneumoniae assessed as growth inhibition after 16 to 18 hr by serial plate dilution method; type: functional
[8] = tested on: Mycolicibacterium smegmatis; test: Antitubercular activity against Mycobacterium smegmatis ATCC 19420 assessed as growth inhibition at 1 to 100 ug/mL after 7 days by resazurin reduction test; type: functional; conditions: ATCC 19420, 168 h
Pseudomonas aeruginosa [9] = test: Antibacterial activity against Pseudomonas aeruginosa ATCC 27853 assessed as growth inhibition after 16 to 18 hr by serial plate dilution method; type: functional
Aspergillus flavus [10] = test: Antifungal activity against Aspergillus flavus NCIM 524 assessed as growth inhibition at […] to […] ug/ml after 3 to 4 days by agar well diffusion method; type: functional
Staphylococcus aureus [11] = type: functional, ATCC 25923
Description: Antibacterial activity against Staphylococcus aureus ATCC 25923 assessed as growth inhibition at 1.56 to 25 ug/ml after 3 to 4 days by agar well diffusion method

[12] = tested on: Mycolicibacterium fortuitum; test: Antitubercular activity against Mycobacterium fortuitum ATCC 19542 assessed as growth inhibition at 1 to 100 ug/mL after 7 days by resazurin reduction test; type: functional; conditions: ATCC 19542, 168 h
[13] = tested on: Mycolicibacterium fortuitum; test: Antitubercular activity against Mycobacterium fortuitum ATCC 19542 assessed as growth inhibition at 0.3125 to 5 ug/mL after 7 days by resazurin reduction test; type: functional; conditions: ATCC 19542, 168 h
Talaromyces marneffei [14] = test: Antifungal activity against Talaromyces marneffei assessed as growth inhibition after 3 to 4 days by serial plate dilution method; type: functional
Pseudomonas aeruginosa [15] = type: functional, ATCC 27853
Description: Antibacterial activity against Pseudomonas aeruginosa ATCC 27853 assessed as growth inhibition at 1.56 to 25 ug/ml after 3 to 4 days by agar well diffusion method

Aspergillus fumigatus [16] = test: Antifungal activity against Aspergillus fumigatus NCIM 902 assessed as growth inhibition after 3 to 4 days by serial plate dilution method; type: functional
[17] = tested on: Mycobacterium tuberculosis; test: Antitubercular activity against Mycobacterium tuberculosis H37Rv ATCC 27294 assessed as growth inhibition at 1 to 100 ug/mL after 7 days by resazurin reduction test; type: functional; conditions: for MIC: Mycobacterium tuberculosis, H37Rv ATCC 27294, 168 h
Aspergillus flavus [18] = test: Antifungal activity against Aspergillus flavus NCIM 524 assessed as growth inhibition after 3 to 4 days by serial plate dilution method; type: functional
Escherichia coli [19] = test: Antibacterial activity against Escherichia coli […] assessed as growth inhibition after 16 to 18 hr by serial plate dilution method; type: functional
Streptococcus pyogenes [20] = type: functional
Description: Antibacterial activity against Streptococcus pyogenes assessed as growth inhibition at 1.56 to 25 ug/ml after 3 to 4 days by agar well diffusion method

Candida albicans [21] = test: Antifungal activity against Candida albicans assessed as growth inhibition at […] to […] ug/ml after 3 to 4 days by agar well diffusion method; type: functional
[22] = tested on: Mycolicibacterium smegmatis; test: Antitubercular activity against Mycobacterium smegmatis ATCC 19420 assessed as growth inhibition at 0.3125 to 5 ug/mL after 7 days by resazurin reduction test; type: functional; conditions: ATCC 19420, 168 h
[23] = tested on: Trichophyton mentagrophytes; test: Antifungal activity against Trichophyton mentagrophytes assessed as growth inhibition at […] to […] ug/ml after 3 to 4 days by agar well diffusion method; type: functional
Klebsiella pneumoniae [24] = type: functional
Description: Antibacterial activity against Klebsiella pneumoniae assessed as growth inhibition at 1.56 to 25 ug/ml after 3 to 4 days by agar well diffusion method

[25] = tested on: Trichophyton mentagrophytes; test: Antifungal activity against Trichophyton mentagrophytes assessed as growth inhibition after 3 to 4 days by serial plate dilution method; type: functional
Aspergillus fumigatus [26] = test: Antifungal activity against Aspergillus fumigatus NCIM 902 assessed as growth inhibition at […] to […] ug/ml after 3 to 4 days by agar well diffusion method; type: functional

Row | Structure (SMILES) | MIC (Staphylococcus aureus [1]) [µg/mL] | MIC (Streptococcus pyogenes [2]) [µg/mL] | MIC [3] [µg/mL] | MIC (Candida albicans [4]) [µg/mL] | diameter of the inhibition zone (DIZ) (Escherichia coli [5]) [mm] | diameter of the inhibition zone (DIZ) (Talaromyces marneffei [6]) [mm] | MIC (Klebsiella pneumoniae [7]) [µg/mL] | MIC [8] [µg/mL] | MIC (Pseudomonas aeruginosa [9]) [µg/mL] | diameter of the inhibition zone (DIZ) (Aspergillus flavus [10]) [mm] | diameter of the inhibition zone (DIZ) (Staphylococcus aureus [11]) [mm] | MIC [12] [µg/mL] | MIC [13] [µg/mL] | MIC (Talaromyces marneffei [14]) [µg/mL] | diameter of the inhibition zone (DIZ) (Pseudomonas aeruginosa [15]) [mm] | MIC (Aspergillus fumigatus [16]) [µg/mL] | growth inhibition (GI) [17] [%] | MIC [17] [µg/mL] | MIC (Aspergillus flavus [18]) [µg/mL] | MIC (Escherichia coli [19]) [µg/mL] | also measured
1 | O=C(CCc1c[nH]c2ccc(Cl)cc12)NCc1c[nH]c2ccc(Cl)cc12 | 6.25 (≈ 16.2 µM) | 12.5 (≈ 32.4 µM) | 0.625 (≈ 1.62 µM) | 25 (≈ 64.7 µM) | 16 | <10 | 6.25 (≈ 16.2 µM) | 1 (≈ 2.59 µM) | 6.25 (≈ 16.2 µM) | <10 | 16 | 10 (≈ 25.9 µM) | 10 (≈ 25.9 µM) | 25 (≈ 64.7 µM) | 16 | 6.25 (≈ 16.2 µM) | 90 | 1 (≈ 2.59 µM) | 25 (≈ 64.7 µM) | 6.25 (≈ 16.2 µM) | diameter of the inhibition zone (DIZ) (Streptococcus pyogenes [20]): 11 mm; diameter of the inhibition zone (DIZ) (Candida albicans [21]): <10 mm; MIC [22]: 1.25 µg/mL (≈ 3.24 µM); diameter of the inhibition zone (DIZ) [23]: 16 mm; diameter of the inhibition zone (DIZ) (Klebsiella pneumoniae [24]): 16 mm; MIC [25]: 6.25 µg/mL (≈ 16.2 µM); diameter of the inhibition zone (DIZ) (Aspergillus fumigatus [26]): 16 mm
2 | Cc1[nH]c2ccc(OC(F)(F)F)cc2c1CNC(=O)CCc1cn(C)c2ccc(Cl)cc12 | 25 (≈ 53.9 µM) | 12.5 (≈ 26.9 µM) | 1.25 (≈ 2.69 µM) | 12.5 (≈ 26.9 µM) | 16 | <10 | 6.25 (≈ 13.5 µM) | 1 (≈ 2.16 µM) | 25 (≈ 53.9 µM) | <10 | <10 | 10 (≈ 21.6 µM) | 1.25 (≈ 2.69 µM) | 25 (≈ 53.9 µM) | <10 | 25 (≈ 53.9 µM) | 90 | 1 (≈ 2.16 µM) | 25 (≈ 53.9 µM) | 6.25 (≈ 13.5 µM) | diameter of the inhibition zone (DIZ) (Streptococcus pyogenes [20]): 11 mm; diameter of the inhibition zone (DIZ) (Candida albicans [21]): 11 mm; MIC [22]: 1.25 µg/mL (≈ 2.69 µM); diameter of the inhibition zone (DIZ) [23]: <10 mm; diameter of the inhibition zone (DIZ) (Klebsiella pneumoniae [24]): 16 mm; MIC [25]: 25 µg/mL (≈ 53.9 µM); diameter of the inhibition zone (DIZ) (Aspergillus fumigatus [26]): <10 mm
3 | Cn1cc(CCC(=O)NCc2cn(C)c3ccc(Cl)cc23)c2cc(Cl)ccc21 | 25 (≈ 60.3 µM) | 25 (≈ 60.3 µM) | 10 (≈ 24.1 µM) | 25 (≈ 60.3 µM) | 11 | 11 | 12.5 (≈ 30.2 µM) | > 100 | 12.5 (≈ 30.2 µM) | <10 | <10 | 10 (≈ 24.1 µM) | 10 (≈ 24.1 µM) | 12.5 (≈ 30.2 µM) | 11 | 25 (≈ 60.3 µM) | <90 | > 100 | 25 (≈ 60.3 µM) | 12.5 (≈ 30.2 µM) | diameter of the inhibition zone (DIZ) (Streptococcus pyogenes [20]): <10 mm; diameter of the inhibition zone (DIZ) (Candida albicans [21]): <10 mm; MIC [22]: 10 µg/mL (≈ 24.1 µM); diameter of the inhibition zone (DIZ) [23]: <10 mm; diameter of the inhibition zone (DIZ) (Klebsiella pneumoniae [24]): 11 mm; MIC [25]: 25 µg/mL (≈ 60.3 µM); diameter of the inhibition zone (DIZ) (Aspergillus fumigatus [26]): <10 mm
4 | Cn1cc(CCCNC(=O)CCc2c[nH]c3ccc(Cl)cc23)c2cc(OC(F)(F)F)ccc21 | 6.25 (≈ 13.1 µM) | 6.25 (≈ 13.1 µM) | 0.625 (≈ 1.31 µM) | 25 (≈ 52.3 µM) | 16 | 11 | 6.25 (≈ 13.1 µM) | 10 (≈ 20.9 µM) | 6.25 (≈ 13.1 µM) | <10 | 16 | 10 (≈ 20.9 µM) | 10 (≈ 20.9 µM) | 12.5 (≈ 26.2 µM) | 16 | 25 (≈ 52.3 µM) | 95 | 1 (≈ 2.09 µM) | 25 (≈ 52.3 µM) | 6.25 (≈ 13.1 µM) | diameter of the inhibition zone (DIZ) (Streptococcus pyogenes [20]): 16 mm; diameter of the inhibition zone (DIZ) (Candida albicans [21]): <10 mm; MIC [22]: 10 µg/mL (≈ 20.9 µM); diameter of the inhibition zone (DIZ) [23]: <10 mm; diameter of the inhibition zone (DIZ) (Klebsiella pneumoniae [24]): 16 mm; MIC [25]: 25 µg/mL (≈ 52.3 µM); diameter of the inhibition zone (DIZ) (Aspergillus fumigatus [26]): <10 mm
